This is an account of results in patent EP3502093A1, “ZWITTERIONIC PILLARARENE DERIVATIVE” (Freie Universität Berlin, priority 2017, dated 2019).

In assay [1] the test system is E. coli biofilm. In words: treatment of pre-fabricated biofilms of different stages for 24 h, LIVE/DEAD staining. The assay is classed as cell-based. Particulars: 200 nM, treated 24 h. The protocol:
As depicted in Figure 2, E. coli biofilm in different stages - namely, in colony formation stage (1 day growth ["cultivated 1 + 1 days"]) and in maturation stages (3 days growth ["cultivated 1 + 3 days"] or 5 days growth ["cultivated 1 + 5 days"], respectively), were pre-fabricated according to literature^16 and then treated with a dose of 200 nM ZW-PA nanoparticles, 200 nM ampicillin or PBS for another 24 h. Afterwards, the resulting biofilms on the 2nd day, the 4th day and the 6th day were observed. A LIVE/DEAD staining of the E. coli cells was applied. By this staining, living cells are stained green, while dead cells are stained red. […] Specifically, the biofilm height increased from 8 µm on the 2nd day (1st + 1 day) to 25 µm on the 6th day (1st + 5 days). Only green (living) cells could be observed. The scale bars in all plots of Figure 2 represent 50 µm.

Assay [2] relates to E. coli biofilm. In words: prolonged incubation (24 h, 72 h, 120 h) of 1-day pre-fabricated biofilm, regrowth and resistance. The settings on record: 1-day biofilm, 200 nM. The assay is classed as cell-based. The protocol:
Biofilms are considered to be highly resistant to antibacterial agents due to restricted penetration of antibacterial agents into biofilms, slow growth owing to nutrient limitation, expression of genes involved in the general stress response, and emergence of a biofilm-specific phenotype. Thus, it is important to investigate the emergence of resistances against a new antibacterial agent used for combating biofilms. Therefore, ZW-PA nanoparticles in a concentration of 200 nM were applied to a biofilm pre-fabricated for 1 day. Subsequently, the biofilm was incubated with ZW-PA nanoparticles and investigated after 1 day incubation (24 h, cultivated 1 + 1 days), after 3 days incubation (72 h, cultivated 1 + 3 days), and after 5 days incubation (120 h, cultivated 1 + 5 days). PBS and 200 nM ampicillin were used as controls. The scale bars in all plots of Figure 3 represent 50 µm.

Setting [3] is: biofilm grown 1 day (1 + 1 days).
Where [4] appears, read: biofilm grown 5 days (1 + 5 days).

Consider `CC1(C)S[C@@H]2[C@H](NC(=O)[C@H](N)c3ccccc3)C(=O)N2[C@H]1C(=O)O` [ampicillin], for which the “LIVE/DEAD staining, killing of cells in biofilm” value is recorded as “less than the half of the cells, were stained red” in the assay on E. coli biofilm [1] (setting [3]); “most of the cells were still alive” in the assay on E. coli biofilm [1] (biofilm grown 3 days (1 + 3 days)); “effective only against the cells on the surface layer of the biofilm” in the assay on E. coli biofilm [1] (setting [4]); “a part of the cells could be killed” in the assay on E. coli biofilm [2] (24 h incubation (1 + 1 days)). For the same molecule, the biofilm height in the assay with E. coli biofilm [1] (setting [3]) was 5 µm; with E. coli biofilm [1] (setting [4]), 24 µm. For the same molecule, the “LIVE/DEAD staining, living versus dead cells” value is “more green than red cells” in the assay with E. coli biofilm [2] (72 h incubation (1 + 3 days)) and “more red than green cells” in the assay on E. coli biofilm [2] (120 h incubation (1 + 5 days)). For the same molecule, the “cell density and reformation of the biofilm on further incubation” value with E. coli biofilm [2] (further incubated to 72 h and 120 h) is on record as “the biofilm could gradually reform”.
